For the experiment, the system named is Pseudomonas aeruginosa E2. In words: MIC against Pseudomonas aeruginosa E2. In kind it is cell-based.

≈ marks a conversion by molar mass, not a printed value.

The MIC is the lowest concentration that inhibits growth of the organism. Read a low MIC as greater potency. `CCN1CCN(C(=O)N[C@@H](C(=O)NC2C(=O)N3C(C(=O)O)=C(CSc4nncs4)CS[C@H]23)c2ccc(OC(=O)CC(C)=O)cc2)C(=O)C1=O` (single isomer, unassigned) [Example 9, 7-[D(-)-α-(4-ethyl-2,3-dioxopiperazin-1-yl-carbonylamino)-p-acetoacetoxyphenylacetamido]-3-(1,3,4-thiadiazol-2-yl-thiomethyl)-3-cephem-4-carboxylic acid]: the MIC came to 6.25 µg/mL (≈ 8.54 µM).

With `CCN1CCN(C(=O)N[C@@H](C(=O)NC2C(=O)N3C(C(=O)O)=C(CSc4nncs4)CS[C@H]23)c2ccc(OC(=O)CC(C)=O)c(Cl)c2)C(=O)C1=O` (single isomer, unassigned) [Example 10, 7-[D(-)-α-(4-ethyl-2,3-dioxopiperazin-1-yl-carbonylamino)-m-chloro-p-acetoacetoxyphenylacetamido]-3-(1,3,4-thiadiazol-2-yl-thiomethyl)-3-cephem-4-carboxylic acid], the MIC was 3.13 µg/mL (≈ 4.08 µM).

With `CCOC(=O)Oc1ccc([C@@H](NC(=O)N2CCN(CC)C(=O)C2=O)C(=O)NC2C(=O)N3C(C(=O)O)=C(CSc4nnc(C)s4)CS[C@H]23)cc1` (single isomer, unassigned) [Example 11, 7-[D(-)-α-(4-ethyl-2,3-dioxopiperazin-1-yl-carbonylamino)-p-ethoxycarbonyloxyphenylacetamido]-3-(5-methyl-1,3,4-thiadiazol-2-yl-thiomethyl)-3-cephem-4-carboxylic acid], the MIC stood at 12.5 µg/mL (≈ 17 µM).

For `CCOC(=O)Oc1ccc([C@@H](NC(=O)N2CCN(CC)C(=O)C2=O)C(=O)NC2C(=O)N3C(C(=O)O)=C(CSc4nnc(C)s4)CS[C@H]23)cc1Cl` (single isomer, unassigned) [Example 12, 7-[D(-)-α-(4-ethyl-2,3-dioxopiperazin-1-yl-carbonylamino)-m-chloro-p-ethoxycarbonyloxyphenylacetamido]-3-(5-methyl-1,3,4-thiadiazol-2-yl-thiomethyl)-3-cephem-4-carboxylic acid], 12.5 µg/mL (≈ 16.3 µM) was the least that counted as inhibitory (MIC).

The molecule `CCN1CCN(C(=O)N[C@@H](C(=O)NC2C(=O)N3C(C(=O)O)=C(CSc4nncs4)CS[C@H]23)c2ccc(OC(=O)OCC(C)C)cc2)C(=O)C1=O` (single isomer, unassigned) [Example 17, 7-[D(-)-α-(4-ethyl-2,3-dioxopiperazin-1-yl-carbonylamino)-p-iso-butoxycarbonyloxyphenylacetamido]-3-(1,3,4-thiadiazol-2-yl-thiomethyl)-3-cephem-4-carboxylic acid] returned an MIC of 12.5 µg/mL (≈ 16.7 µM).

These data come from patent publication US4103008A, “7[2(2,3 Dioxopiperazin-1-yl-carbonylamino)substituted 2 phenylacetamido]-3-2'-thiadiazolyl cephalosporanic acid derivatives” (priority 1976, dated 1978).
